Source: ChEMBL document CHEMBL4219190, “Studies on synthesis of novel pyrido[2,3-d]pyrimidine derivatives, evaluation of their antimicrobial activity and molecular docking” (Bioorg Med Chem Lett, 2018)
≈ marks a conversion by molar mass, not a printed value. Calls of active or inactive are those of the source. The rule behind the calls is not given here.

What was measured:
Bacillus subtilis [1] = test: Bactericidal activity against Bacillus subtilis MTCC 121 incubated for 24 hrs followed by transfer of microbial suspension to Mueller Hinton agar plates and measured after 24 hrs post transfer; type: functional; conditions: MTCC 121, 24 h
Candida albicans [2] = test: Inhibition of ergosterol in Candida albicans MTCC 183 after 20 hrs by UV spectrophotometric method; type: functional, organism-based
Bacillus subtilis [3] = test: Antibacterial activity against Bacillus subtilis MTCC 121 after 24 hrs by well diffusion method; type: functional; conditions: MTCC 121, 24 h
Staphylococcus aureus [4] = test: Antibacterial activity against Staphylococcus aureus MTCC 96 after 24 hrs by well diffusion method; type: functional; conditions: MTCC 96, 24 h
Staphylococcus aureus [5] = test: Antibacterial activity against Staphylococcus aureus MLS16 MTCC 2940 after 24 hrs by well diffusion method; type: functional; conditions: MLS16 MTCC 2940, 24 h
Micrococcus luteus [6] = test: Antibacterial activity against Micrococcus luteus MTCC 2470 after 24 hrs by well diffusion method; type: functional; conditions: MTCC 2470, 24 h
Raoultella planticola [7] = test: Antibacterial activity against Klebsiella planticola MTCC 530 after 24 hrs by well diffusion method; type: functional; conditions: MTCC 530, 24 h
Escherichia coli [8] = test: Antibacterial activity against Escherichia coli MTCC 739 after 24 hrs by well diffusion method; type: functional; conditions: MTCC 739, 24 h
Pseudomonas aeruginosa [9] = test: Antibacterial activity against Pseudomonas aeruginosa MTCC 2453 after 24 hrs by well diffusion method; type: functional; conditions: MTCC 2453, 24 h
Staphylococcus aureus [10] = test: Bactericidal activity against Staphylococcus aureus MTCC 96 incubated for 24 hrs followed by transfer of microbial suspension to Mueller Hinton agar plates and measured after 24 hrs post transfer; type: functional; conditions: MTCC 96, 24 h
Staphylococcus aureus [11] = test: Bactericidal activity against Staphylococcus aureus MLS16 MTCC 2940 incubated for 24 hrs followed by transfer of microbial suspension to Mueller Hinton agar plates and measured after 24 hrs post transfer; type: functional; conditions: MLS16 MTCC 2940, 24 h
Micrococcus luteus [12] = test: Bactericidal activity against Micrococcus luteus MTCC 2470 incubated for 24 hrs followed by transfer of microbial suspension to Mueller Hinton agar plates and measured after 24 hrs post transfer; type: functional; conditions: MTCC 2470, 24 h
Raoultella planticola [13] = test: Bactericidal activity against Klebsiella planticola MTCC 530 incubated for 24 hrs followed by transfer of microbial suspension to Mueller Hinton agar plates and measured after 24 hrs post transfer; type: functional; conditions: MTCC 530, 24 h
Escherichia coli [14] = test: Bactericidal activity against Escherichia coli MTCC 739 incubated for 24 hrs followed by transfer of microbial suspension to Mueller Hinton agar plates and measured after 24 hrs post transfer; type: functional; conditions: MTCC 739, 24 h
Pseudomonas aeruginosa [15] = test: Bactericidal activity against Pseudomonas aeruginosa MTCC 2453 incubated for 24 hrs followed by transfer of microbial suspension to Mueller Hinton agar plates and measured after 24 hrs post transfer; type: functional; conditions: MTCC 2453, 24 h
Candida albicans [16] = test: Antifungal activity against Candida albicans MTCC 183 after 24 hrs by well diffusion method; type: functional; conditions: MTCC 183, 24 h
Candida albicans [17] = test: Antifungal activity against Candida albicans MTCC 227 after 24 hrs by well diffusion method; type: functional; conditions: MTCC 227, 24 h
Candida albicans [18] = test: Antifungal activity against Candida albicans MTCC 854 after 24 hrs by well diffusion method; type: functional; conditions: MTCC 854, 24 h
Candida albicans [19] = test: Antifungal activity against Candida albicans MTCC 1637 after 24 hrs by well diffusion method; type: functional; conditions: MTCC 1637, 24 h
Candida albicans [20] = test: Antifungal activity against Candida albicans MTCC 3018 after 24 hrs by well diffusion method; type: functional; conditions: MTCC 3018, 24 h
Candida albicans [21] = test: Antifungal activity against Candida albicans MTCC 3017 after 24 hrs by well diffusion method; type: functional; conditions: MTCC 3017, 24 h
Candida albicans [22] = test: Antifungal activity against Candida albicans MTCC 3958 after 24 hrs by well diffusion method; type: functional; conditions: MTCC 3958, 24 h
Candida albicans [23] = test: Antifungal activity against Candida albicans MTCC 4748 after 24 hrs by well diffusion method; type: functional; conditions: MTCC 4748, 24 h
Candida albicans [24] = test: Antifungal activity against Candida albicans MTCC 7315 after 24 hrs by well diffusion method; type: functional; conditions: MTCC 7315, 24 h
Candida parapsilosis [25] = test: Antifungal activity against Candida parapsilosis MTCC 1744 after 24 hrs by well diffusion method; type: functional; conditions: MTCC 1744, 24 h
[Candida] aaseri [26] = Antifungal activity against Candida aaseri MTCC 1962 after 24 hrs by well diffusion method; type: functional; conditions: Yamadazyma aaseri, MTCC 1962, 24 h
Nakaseomyces glabratus [27] = test: Antifungal activity against Candida glabrata MTCC 3019 after 24 hrs by well diffusion method; type: functional
Pichia kudriavzevii [28] = test: Antifungal activity against Candida krusei MTCC 3020 after 24 hrs by well diffusion method; type: functional
Pichia sporocuriosa [29] = test: Antifungal activity against Issatchenkia hanoiensis MTCC 4755 after 24 hrs by well diffusion method; type: functional; conditions: MTCC 4755, 24 h
Candida albicans [30] = test: Fungicidal activity against Candida albicans MTCC 183 incubated for 24 hrs followed by transfer of microbial suspension to Sabouraud dextrose agar plates and measured after 24 hrs post transfer; type: functional; conditions: MTCC 183, 24 h
Candida albicans [31] = test: Fungicidal activity against Candida albicans MTCC 227 incubated for 24 hrs followed by transfer of microbial suspension to Sabouraud dextrose agar plates and measured after 24 hrs post transfer; type: functional; conditions: MTCC 227, 24 h
Candida albicans [32] = test: Fungicidal activity against Candida albicans MTCC 854 incubated for 24 hrs followed by transfer of microbial suspension to Sabouraud dextrose agar plates and measured after 24 hrs post transfer; type: functional; conditions: MTCC 854, 24 h
Candida albicans [33] = test: Fungicidal activity against Candida albicans MTCC 1637 incubated for 24 hrs followed by transfer of microbial suspension to Sabouraud dextrose agar plates and measured after 24 hrs post transfer; type: functional; conditions: MTCC 1637, 24 h
Candida albicans [34] = test: Fungicidal activity against Candida albicans MTCC 3017 incubated for 24 hrs followed by transfer of microbial suspension to Sabouraud dextrose agar plates and measured after 24 hrs post transfer; type: functional; conditions: MTCC 3017, 24 h
Candida albicans [35] = test: Fungicidal activity against Candida albicans MTCC 3018 incubated for 24 hrs followed by transfer of microbial suspension to Sabouraud dextrose agar plates and measured after 24 hrs post transfer; type: functional; conditions: MTCC 3018, 24 h
Candida albicans [36] = test: Fungicidal activity against Candida albicans MTCC 3958 incubated for 24 hrs followed by transfer of microbial suspension to Sabouraud dextrose agar plates and measured after 24 hrs post transfer; type: functional; conditions: MTCC 3958, 24 h
Candida albicans [37] = test: Fungicidal activity against Candida albicans MTCC 4748 incubated for 24 hrs followed by transfer of microbial suspension to Sabouraud dextrose agar plates and measured after 24 hrs post transfer; type: functional; conditions: MTCC 4748, 24 h
Candida albicans [38] = test: Fungicidal activity against Candida albicans MTCC 7315 incubated for 24 hrs followed by transfer of microbial suspension to Sabouraud dextrose agar plates and measured after 24 hrs post transfer; type: functional; conditions: MTCC 7315, 24 h
Candida parapsilosis [39] = test: Fungicidal activity against Candida parapsilosis MTCC 1744 incubated for 24 hrs followed by transfer of microbial suspension to Sabouraud dextrose agar plates and measured after 24 hrs post transfer; type: functional; conditions: Lodderomyces parapsilosis, MTCC 1744, 24 h
[Candida] aaseri [40] = Fungicidal activity against Candida aaseri MTCC 1962 incubated for 24 hrs followed by transfer of microbial suspension to Sabouraud dextrose agar plates and measured after 24 hrs post transfer; type: functional; conditions: Yamadazyma aaseri, MTCC 1962, 24 h
Nakaseomyces glabratus [41] = test: Fungicidal activity against Candida glabrata MTCC 3019 incubated for 24 hrs followed by transfer of microbial suspension to Sabouraud dextrose agar plates and measured after 24 hrs post transfer; type: functional
Pichia kudriavzevii [42] = test: Fungicidal activity against Candida krusei MTCC 3020 incubated for 24 hrs followed by transfer of microbial suspension to Sabouraud dextrose agar plates and measured after 24 hrs post transfer; type: functional
Pichia sporocuriosa [43] = test: Fungicidal activity against Issatchenkia hanoiensis MTCC 4755 incubated for 24 hrs followed by transfer of microbial suspension to Sabouraud dextrose agar plates and measured after 24 hrs post transfer; type: functional; conditions: MTCC 4755, 24 h
Bacillus subtilis [44] = test: Antibiofilm activity against Bacillus subtilis MTCC 121 after 24 hrs by crystal violet staining-based assay; type: functional, organism-based; conditions: Bacillus subtilis, MTCC 121, 24 h; read-out: IC50
Staphylococcus aureus [45] = test: Antibiofilm activity against Staphylococcus aureus MTCC 96 after 24 hrs by crystal violet staining-based assay; type: functional, organism-based; conditions: Staphylococcus aureus, MTCC 96, 24 h; read-out: IC50
Staphylococcus aureus [46] = test: Antibiofilm activity against Staphylococcus aureus MLS16 MTCC 2940 after 24 hrs by crystal violet staining-based assay; type: functional, organism-based; conditions: Staphylococcus aureus, MLS16 MTCC 2940, 24 h; read-out: IC50
Pseudomonas aeruginosa [47] = test: Antibiofilm activity against Pseudomonas aeruginosa MTCC 2453 after 24 hrs by crystal violet staining-based assay; type: functional, organism-based; conditions: Pseudomonas aeruginosa, MTCC 2453, 24 h; read-out: IC50
Raoultella planticola [48] = test: Antibiofilm activity against Klebsiella planticola MTCC 530 after 24 hrs by crystal violet staining-based assay; type: functional, organism-based; conditions: Klebsiella planticola, MTCC 530, 24 h; read-out: IC50

MIC (Bacillus subtilis [3]): 15.6 µg/mL (≈ 32.7 µM)
MIC (Staphylococcus aureus [4]): 7.8 µg/mL (≈ 16.3 µM)
MIC (Staphylococcus aureus [5]): 15.6 µg/mL (≈ 32.7 µM)
MIC (Micrococcus luteus [6]): 15.6 µg/mL (≈ 32.7 µM)
MIC (Escherichia coli [8]): 15.6 µg/mL (≈ 32.7 µM)
MIC (Pseudomonas aeruginosa [9]): 31.2 µg/mL (≈ 65.3 µM)
MIC (Candida albicans [16]): 3.9 µg/mL (≈ 8.17 µM)
MIC (Candida albicans [17]): 3.9 µg/mL (≈ 8.17 µM)
MIC (Candida albicans [18]): 7.8 µg/mL (≈ 16.3 µM)
MIC (Candida albicans [19]): 7.8 µg/mL (≈ 16.3 µM)
MIC (Candida albicans [20]): 15.6 µg/mL (≈ 32.7 µM)
MIC (Candida albicans [21]): 3.9 µg/mL (≈ 8.17 µM)
MIC (Candida albicans [22]): 7.8 µg/mL (≈ 16.3 µM)
MIC (Candida albicans [23]): 15.6 µg/mL (≈ 32.7 µM)
MIC (Candida albicans [24]): 31.2 µg/mL (≈ 65.3 µM)
MIC (Candida parapsilosis [25]): 31.2 µg/mL (≈ 65.3 µM)
MIC ([Candida] aaseri [26]): 7.8 µg/mL (≈ 16.3 µM)
MIC (Nakaseomyces glabratus [27]): inactive
MIC (Pichia kudriavzevii [28]): inactive
MIC (Pichia sporocuriosa [29]): 15.6 µg/mL (≈ 32.7 µM)
IC50 (Bacillus subtilis [44]): 10.8 µg/mL (≈ 22.6 µM)
IC50 (Staphylococcus aureus [45]): 5.4 µg/mL (≈ 11.3 µM)
IC50 (Staphylococcus aureus [46]): 10.8 µg/mL (≈ 22.6 µM)
IC50 (Pseudomonas aeruginosa [47]): 21.6 µg/mL (≈ 45.2 µM)
SMILES: CN1CCN(C(=O)c2nc(-c3ccccc3)c3c(C(F)(F)F)cc(-c4ccccc4)nc3n2)CC1
MBC (Bacillus subtilis [1]): 31.2 µg/mL (≈ 65.3 µM)
inhibition (Candida albicans [2]): Dose-dependent effect
MIC (Raoultella planticola [7]): 31.2 µg/mL (≈ 65.3 µM)
MBC (Staphylococcus aureus [10]): 15.6 µg/mL (≈ 32.7 µM)
MBC (Staphylococcus aureus [11]): 31.2 µg/mL (≈ 65.3 µM)
MBC (Micrococcus luteus [12]): 15.6 µg/mL (≈ 32.7 µM)
MBC (Raoultella planticola [13]): 62.4 µg/mL (≈ 131 µM)
MBC (Escherichia coli [14]): 31.2 µg/mL (≈ 65.3 µM)
MBC (Pseudomonas aeruginosa [15]): 62.4 µg/mL (≈ 131 µM)
MFC (Candida albicans [30]): 3.9 µg/mL (≈ 8.17 µM)
MFC (Candida albicans [31]): 7.8 µg/mL (≈ 16.3 µM)
MFC (Candida albicans [32]): 15.6 µg/mL (≈ 32.7 µM)
MFC (Candida albicans [33]): 15.6 µg/mL (≈ 32.7 µM)
MFC (Candida albicans [34]): 7.8 µg/mL (≈ 16.3 µM)
MFC (Candida albicans [35]): 31.2 µg/mL (≈ 65.3 µM)
MFC (Candida albicans [36]): 15.6 µg/mL (≈ 32.7 µM)
MFC (Candida albicans [37]): 31.2 µg/mL (≈ 65.3 µM)
MFC (Candida albicans [38]): 62.5 µg/mL (≈ 131 µM)
MFC (Candida parapsilosis [39]): 62.5 µg/mL (≈ 131 µM)
MFC ([Candida] aaseri [40]): 15.6 µg/mL (≈ 32.7 µM)
MFC (Nakaseomyces glabratus [41]): inactive
MFC (Pichia kudriavzevii [42]): inactive
MFC (Pichia sporocuriosa [43]): 31.2 µg/mL (≈ 65.3 µM)
IC50 (Raoultella planticola [48]): 21.6 µg/mL (≈ 45.2 µM)
